Experimental data published in the CheMixHub viscosity set.

Assay: xn = mol fraction of the nth substance listed

COCCOCCOC + CCCO
viscosity [mPa·s]
Settings	298.15 K	308.15 K	318.15 K
101 kPa, x1 = 0.0121	1.856	1.451	–
101 kPa, x1 = 0.0768	1.559	1.243	–
101 kPa, x1 = 0.1011	1.451	1.173	0.956
101 kPa, x1 = 0.1288	1.399	1.144	–
101 kPa, x1 = 0.1895	1.272	1.052	–
101 kPa, x1 = 0.1997	1.243	1.021	0.847
101 kPa, x1 = 0.2359	1.213	1.004	–
101 kPa, x1 = 0.2801	1.183	0.971	–
101 kPa, x1 = 0.3029	1.115	0.927	0.779
101 kPa, x1 = 0.3162	1.133	0.951	–
101 kPa, x1 = 0.3322	1.12	0.939	–
101 kPa, x1 = 0.3923	1.08	0.918	–
101 kPa, x1 = 0.4025	1.046	0.878	0.743
101 kPa, x1 = 0.4477	1.051	0.899	–
101 kPa, x1 = 0.4978	1.032	0.886	–
101 kPa, x1 = 0.5004	1.01	0.852	0.729
101 kPa, x1 = 0.5784	1.011	0.871	–
101 kPa, x1 = 0.5992	0.988	0.838	0.717
101 kPa, x1 = 0.6325	1.003	0.854	–
101 kPa, x1 = 0.6934	0.975	0.828	0.709
101 kPa, x1 = 0.7544	0.991	0.86	–
101 kPa, x1 = 0.8004	0.971	0.825	0.709
101 kPa, x1 = 0.813	0.991	0.862	–
101 kPa, x1 = 0.8974	0.981	0.836	–
101 kPa, x1 = 0.9026	0.993	0.863	–
101 kPa, x1 = 0.9638	0.996	0.867	–
101 kPa, x2 = 0.0194	0.996	0.867	–
101.33 kPa, x1 = 0.0064	1.913	–	–
101.33 kPa, x1 = 0.0122	1.881	–	–
101.33 kPa, x1 = 0.0238	1.816	–	–
101.33 kPa, x1 = 0.0358	1.756	–	–
101.33 kPa, x1 = 0.0546	1.671	–	–
101.33 kPa, x1 = 0.0803	1.567	–	–
101.33 kPa, x1 = 0.1176	1.443	–	–
101.33 kPa, x1 = 0.1632	1.333	–	–
101.33 kPa, x1 = 0.2064	1.251	–	–
101.33 kPa, x1 = 0.2619	1.177	–	–
101.33 kPa, x1 = 0.2976	1.14	–	–
101.33 kPa, x1 = 0.3254	1.119	–	–
101.33 kPa, x1 = 0.3716	1.086	–	–
101.33 kPa, x1 = 0.4168	1.065	–	–
101.33 kPa, x1 = 0.4652	1.038	–	–
101.33 kPa, x1 = 0.5109	1.024	–	–
101.33 kPa, x1 = 0.5509	1.009	–	–
101.33 kPa, x1 = 0.5982	0.994	–	–
101.33 kPa, x1 = 0.6569	0.984	–	–
101.33 kPa, x1 = 0.711	0.976	–	–
101.33 kPa, x1 = 0.7757	0.975	–	–
101.33 kPa, x1 = 0.819	0.976	–	–
101.33 kPa, x1 = 0.8649	0.977	–	–
101.33 kPa, x1 = 0.9094	0.984	–	–
101.33 kPa, x1 = 0.9425	0.989	–	–
101.33 kPa, x1 = 0.9722	0.988	–	–

COC(=O)OC + CO
Settings	viscosity [mPa·s]
293.15 K, 101 kPa, x1 = 0.0381	0.5792
293.15 K, 101 kPa, x1 = 0.0818	0.5612
293.15 K, 101 kPa, x1 = 0.1346	0.5507
293.15 K, 101 kPa, x1 = 0.1927	0.5478
293.15 K, 101 kPa, x1 = 0.2626	0.5418
293.15 K, 101 kPa, x1 = 0.348	0.536
293.15 K, 101 kPa, x1 = 0.4533	0.5379
293.15 K, 101 kPa, x1 = 0.5871	0.548
293.15 K, 101 kPa, x1 = 0.7618	0.564
293.15 K, 101.3 kPa, x1 = 0.0537	0.567
293.15 K, 101.3 kPa, x1 = 0.0996	0.551
293.15 K, 101.3 kPa, x1 = 0.2058	0.536
293.15 K, 101.3 kPa, x1 = 0.3135	0.533
293.15 K, 101.3 kPa, x1 = 0.41	0.535
293.15 K, 101.3 kPa, x1 = 0.5086	0.54
293.15 K, 101.3 kPa, x1 = 0.6104	0.545
293.15 K, 101.3 kPa, x1 = 0.7229	0.554
293.15 K, 101.3 kPa, x1 = 0.8338	0.57
293.15 K, 101.3 kPa, x1 = 0.9067	0.586
293.15 K, 101.3 kPa, x1 = 0.9509	0.6
298.15 K, 101 kPa, x1 = 0.0381	0.5373
298.15 K, 101 kPa, x1 = 0.0818	0.5292
298.15 K, 101 kPa, x1 = 0.1346	0.5164
298.15 K, 101 kPa, x1 = 0.1927	0.5119
298.15 K, 101 kPa, x1 = 0.2626	0.5061
298.15 K, 101 kPa, x1 = 0.348	0.503
298.15 K, 101 kPa, x1 = 0.4533	0.5058
298.15 K, 101 kPa, x1 = 0.5871	0.5227
298.15 K, 101 kPa, x1 = 0.7618	0.5374
298.15 K, 101.3 kPa, x1 = 0.0506	0.531
298.15 K, 101.3 kPa, x1 = 0.1042	0.518
298.15 K, 101.3 kPa, x1 = 0.2079	0.502
298.15 K, 101.3 kPa, x1 = 0.3011	0.498
298.15 K, 101.3 kPa, x1 = 0.3963	0.498
298.15 K, 101.3 kPa, x1 = 0.4931	0.504
298.15 K, 101.3 kPa, x1 = 0.589	0.509
298.15 K, 101.3 kPa, x1 = 0.6927	0.517
298.15 K, 101.3 kPa, x1 = 0.8137	0.53
298.15 K, 101.3 kPa, x1 = 0.8997	0.548
298.15 K, 101.3 kPa, x1 = 0.9575	0.566
298.15 K, 101.33 kPa, x1 = 0.0989	0.482
298.15 K, 101.33 kPa, x1 = 0.2009	0.462
298.15 K, 101.33 kPa, x1 = 0.3008	0.458
298.15 K, 101.33 kPa, x1 = 0.4008	0.457
298.15 K, 101.33 kPa, x1 = 0.5	0.462
298.15 K, 101.33 kPa, x1 = 0.6002	0.468
298.15 K, 101.33 kPa, x1 = 0.7016	0.474
298.15 K, 101.33 kPa, x1 = 0.8015	0.496
298.15 K, 101.33 kPa, x1 = 0.9028	0.511
303.15 K, 101 kPa, x1 = 0.0381	0.5011
303.15 K, 101 kPa, x1 = 0.0818	0.4896
303.15 K, 101 kPa, x1 = 0.1346	0.4814
303.15 K, 101 kPa, x1 = 0.1927	0.479
303.15 K, 101 kPa, x1 = 0.2626	0.4723
303.15 K, 101 kPa, x1 = 0.348	0.474
303.15 K, 101 kPa, x1 = 0.4533	0.473
303.15 K, 101 kPa, x1 = 0.5871	0.4884
303.15 K, 101 kPa, x1 = 0.7618	0.5087
303.15 K, 101.3 kPa, x1 = 0.026	0.503
303.15 K, 101.3 kPa, x1 = 0.0707	0.489
303.15 K, 101.3 kPa, x1 = 0.1832	0.469
303.15 K, 101.3 kPa, x1 = 0.2839	0.467
303.15 K, 101.3 kPa, x1 = 0.3823	0.468
303.15 K, 101.3 kPa, x1 = 0.4869	0.472
303.15 K, 101.3 kPa, x1 = 0.5847	0.475
303.15 K, 101.33 kPa, x1 = 0.0989	0.443
303.15 K, 101.33 kPa, x1 = 0.2009	0.432
303.15 K, 101.33 kPa, x1 = 0.3008	0.427
303.15 K, 101.33 kPa, x1 = 0.4008	0.429
303.15 K, 101.33 kPa, x1 = 0.6002	0.439
303.15 K, 101.33 kPa, x1 = 0.7016	0.447
303.15 K, 101.33 kPa, x1 = 0.8015	0.459
303.15 K, 101.33 kPa, x1 = 0.9028	0.48
308.15 K, 101.33 kPa, x1 = 0.0989	0.415
308.15 K, 101.33 kPa, x1 = 0.2009	0.406
308.15 K, 101.33 kPa, x1 = 0.3008	0.404
308.15 K, 101.33 kPa, x1 = 0.4008	0.403
308.15 K, 101.33 kPa, x1 = 0.5	0.406
308.15 K, 101.33 kPa, x1 = 0.6002	0.421
308.15 K, 101.33 kPa, x1 = 0.7016	0.419
308.15 K, 101.33 kPa, x1 = 0.8015	0.433
308.15 K, 101.33 kPa, x1 = 0.9028	0.456
313.15 K, 101 kPa, x1 = 0.0381	0.4382
313.15 K, 101 kPa, x1 = 0.0818	0.4297
313.15 K, 101 kPa, x1 = 0.1346	0.4193
313.15 K, 101 kPa, x1 = 0.1927	0.4192
313.15 K, 101 kPa, x1 = 0.2626	0.4166
313.15 K, 101 kPa, x1 = 0.348	0.4177
313.15 K, 101 kPa, x1 = 0.4533	0.4181
313.15 K, 101 kPa, x1 = 0.5871	0.4314
313.15 K, 101 kPa, x1 = 0.7618	0.4469
323.15 K, 101 kPa, x1 = 0.0381	0.3851
323.15 K, 101 kPa, x1 = 0.0818	0.3724
323.15 K, 101 kPa, x1 = 0.1346	0.3704
323.15 K, 101 kPa, x1 = 0.1927	0.3692
323.15 K, 101 kPa, x1 = 0.2626	0.3685
323.15 K, 101 kPa, x1 = 0.348	0.3693
323.15 K, 101 kPa, x1 = 0.4533	0.3745
323.15 K, 101 kPa, x1 = 0.5871	0.3867
323.15 K, 101 kPa, x1 = 0.7618	0.3997
